This passage reports Activity results from ChEMBL document CHEMBL1151395, “Cytotoxic Flavones From Centaurea urvillei” (J Nat Prod, 1982).

Active and inactive are the calls of the source. The calls are words filed in the database; no cut-off is given here.

In this assay the test system is Fibroblast. The experiment in a line: Cytotoxicity against L-strain mouse fibroblasts at 0.05 mg/ml. The class given is functional, cell-based.

As to `COc1c(O)cc2oc(-c3ccc(O)cc3)cc(=O)c2c1O`, the result was Active.
